Each molecule was assayed on HEK293 cells (assay: Preliminary screening as mRNA vectors, EGFP mRNA transfection of HEK293 cells). Settings: EGFP mRNA 50 ng per well, 96-well plates; percentage of GFP fluorescent cells relative to total number of cells (Hoechst).
Type: cell-based
Description: Cell line: HEK293 cells (ATCC CRL-1573™)
Medium: DMEM supplemented with 10% fetal bovine serum (Invitrogen)
Screening: cell transfection on 96-well plates
Detection (readout): percentage of the number of GFP fluorescent cells relative to the total number of cells (the total number of cells was determined using nucleus dye Hoechst). Lipofectamine2000 (Invitrogen) was used as the positive control.
Method: the experimental method was basically the same with Example 4, and the mass of EGFP mRNA (TriLink) for transfection was 50 ng per well.

Row | Structure (SMILES) | Absolute mRNA transfection efficiency in HEK293 cells [%]
1 | CCCCCCCCCCCCNc1nc(NCCN2CCOCC2)nc(SCCCCCC)n1 [Compound D2S6N12] | 0.8
2 | CCCCCCCCCCCCCNc1nc(NCCN2CCOCC2)nc(SCCCCCC)n1 [Compound D2S6N13] | 0.2
3 | CCCCCCCCCCCCCCCNc1nc(NCCN2CCOCC2)nc(SCCCCCC)n1 [Compound D2S6N15] | 1.2
4 | CCCCCCCCCCCCCCCCNc1nc(NCCN2CCOCC2)nc(SCCCCCC)n1 [Compound D2S6N16] | 2.2
5 | CCCCCCCCCCCCCCCCCCNc1nc(NCCN2CCOCC2)nc(SCCCCCC)n1 [Compound D2S6N18] | 4.5
6 | CCCCCCSc1nc(NCCN2CCOCC2)nc(SCCCCCC)n1 [Compound D2S6S6] | 2.2
7 | CCCCCCCSc1nc(NCCN2CCOCC2)nc(SCCCCCC)n1 [Compound D2S6S7] | 0.6
8 | CCCCCCCCSc1nc(NCCN2CCOCC2)nc(SCCCCCC)n1 [Compound D2S6S8] | 5.0
9 | CCCCCCCCCSc1nc(NCCN2CCOCC2)nc(SCCCCCC)n1 [Compound D2S6S9] | 6.3
10 | CCCCCCCCCCSc1nc(NCCN2CCOCC2)nc(SCCCCCC)n1 [Compound D2S6S10] | 4.6
11 | CCCCCCCCCCCSc1nc(NCCN2CCOCC2)nc(SCCCCCC)n1 [Compound D2S6S11] | 7.4
12 | CCCCCCCCCCCCSc1nc(NCCN2CCOCC2)nc(SCCCCCC)n1 [Compound D2S6S12] | 1.5
13 | CCCCCCCCCCCCCCSc1nc(NCCN2CCOCC2)nc(SCCCCCC)n1 [Compound D2S6S14] | 6.6
14 | CCCCCCCCCCCCCCCSc1nc(NCCN2CCOCC2)nc(SCCCCCC)n1 [Compound D2S6S15] | 6.9
15 | CCCCCCCCCCCCCCCCSc1nc(NCCN2CCOCC2)nc(SCCCCCC)n1 [Compound D2S6S16] | 16.0
16 | CCCCCCCCCCCCCCCCCCSc1nc(NCCN2CCOCC2)nc(SCCCCCC)n1 [Compound D2S6S18] | 12.1
17 | CCCCCCCSc1nc(NCCCCCC)nc(NCCN2CCOCC2)n1 [Compound D2S7N6] | 1.2
18 | CCCCCCCNc1nc(NCCN2CCOCC2)nc(SCCCCCCC)n1 [Compound D2S7N7] | 1.1
19 | CCCCCCCCNc1nc(NCCN2CCOCC2)nc(SCCCCCCC)n1 [Compound D2S7N8] | 1.0
20 | CCCCCCCCCNc1nc(NCCN2CCOCC2)nc(SCCCCCCC)n1 [Compound D2S7N9] | 8.7
21 | CCCCCCCCCCCNc1nc(NCCN2CCOCC2)nc(SCCCCCCC)n1 [Compound D2S7N11] | 16.0
22 | CCCCCCCCCCCCNc1nc(NCCN2CCOCC2)nc(SCCCCCCC)n1 [Compound D2S7N12] | 3.0
23 | CCCCCCCCCCCCCNc1nc(NCCN2CCOCC2)nc(SCCCCCCC)n1 [Compound D2S7N13] | 6.2

Row | Structure (SMILES) | Absolute mRNA transfection efficiency in HEK293 cells [%]
24 | CCCCCCCCCCCCCCCNc1nc(NCCN2CCOCC2)nc(SCCCCCCC)n1 [Compound D2S7N15] | 3.1
25 | CCCCCCCCCCCCCCCCNc1nc(NCCN2CCOCC2)nc(SCCCCCCC)n1 [Compound D2S7N16] | 2.6
26 | CCCCCCCCCCCCCCCCCCNc1nc(NCCN2CCOCC2)nc(SCCCCCCC)n1 [Compound D2S7N18] | 5.2
27 | CCCCCCCSc1nc(NCCN2CCOCC2)nc(SCCCCCCC)n1 [Compound D2S7S7] | 4.9
28 | CCCCCCCCSc1nc(NCCN2CCOCC2)nc(SCCCCCCC)n1 [Compound D2S7S8] | 35.6
29 | CCCCCCCCCSc1nc(NCCN2CCOCC2)nc(SCCCCCCC)n1 [Compound D2S7S9] | 37.7
30 | CCCCCCCCCCSc1nc(NCCN2CCOCC2)nc(SCCCCCCC)n1 [Compound D2S7S10] | 32.4
31 | CCCCCCCCCCCSc1nc(NCCN2CCOCC2)nc(SCCCCCCC)n1 [Compound D2S7S11] | 24.2
32 | CCCCCCCCCCCCSc1nc(NCCN2CCOCC2)nc(SCCCCCCC)n1 [Compound D2S7S12] | 19.2
33 | CCCCCCCCCCCCCCSc1nc(NCCN2CCOCC2)nc(SCCCCCCC)n1 [Compound D2S7S14] | 11.0
34 | CCCCCCCCCCCCCCCSc1nc(NCCN2CCOCC2)nc(SCCCCCCC)n1 [Compound D2S7S15] | 17.5
35 | CCCCCCCCCCCCCCCCSc1nc(NCCN2CCOCC2)nc(SCCCCCCC)n1 [Compound D2S7S16] | 13.9
36 | CCCCCCCCCCCCCCCCCCSc1nc(NCCN2CCOCC2)nc(SCCCCCCC)n1 [Compound D2S7S18] | 5.1
37 | CCCCCCCCSc1nc(NCCCCCC)nc(NCCN2CCOCC2)n1 [Compound D2S8N6] | 0.7
38 | CCCCCCCCSc1nc(NCCCCCCC)nc(NCCN2CCOCC2)n1 [Compound D2S8N7] | 0.9
39 | CCCCCCCCNc1nc(NCCN2CCOCC2)nc(SCCCCCCCC)n1 [Compound D2S8N8] | 0.9
40 | CCCCCCCCCNc1nc(NCCN2CCOCC2)nc(SCCCCCCCC)n1 [Compound D2S8N9] | 8.3
41 | CCCCCCCCCCCNc1nc(NCCN2CCOCC2)nc(SCCCCCCCC)n1 [Compound D2S8N11] | 8.1
42 | CCCCCCCCCCCCNc1nc(NCCN2CCOCC2)nc(SCCCCCCCC)n1 [Compound D2S8N12] | 7.0
43 | CCCCCCCCCCCCCNc1nc(NCCN2CCOCC2)nc(SCCCCCCCC)n1 [Compound D2S8N13] | 7.5
44 | CCCCCCCCCCCCCCCNc1nc(NCCN2CCOCC2)nc(SCCCCCCCC)n1 [Compound D2S8N15] | 5.5
45 | CCCCCCCCCCCCCCCCNc1nc(NCCN2CCOCC2)nc(SCCCCCCCC)n1 [Compound D2S8N16] | 3.4
46 | CCCCCCCCCCCCCCCCCCNc1nc(NCCN2CCOCC2)nc(SCCCCCCCC)n1 [Compound D2S8N18] | 3.7

Row | Structure (SMILES) | Absolute mRNA transfection efficiency in HEK293 cells [%]
47 | CCCCCCCCSc1nc(NCCN2CCOCC2)nc(SCCCCCCCC)n1 [Compound D2S8S8] | 54.5
48 | CCCCCCCCCSc1nc(NCCN2CCOCC2)nc(SCCCCCCCC)n1 [Compound D2S8S9] | 84.9
49 | CCCCCCCCCCSc1nc(NCCN2CCOCC2)nc(SCCCCCCCC)n1 [Compound D2S8S10] | 38.8
50 | CCCCCCCCCCCSc1nc(NCCN2CCOCC2)nc(SCCCCCCCC)n1 [Compound D2S8S11] | 43.3
51 | CCCCCCCCCCCCSc1nc(NCCN2CCOCC2)nc(SCCCCCCCC)n1 [Compound D2S8S12] | 1.1
52 | CCCCCCCCCSc1nc(NCCCCCC)nc(NCCN2CCOCC2)n1 [Compound D2S9N6] | 0.5
53 | CCCCCCCCCSc1nc(NCCCCCCC)nc(NCCN2CCOCC2)n1 [Compound D2S9N7] | 4.2
54 | CCCCCCCCCSc1nc(NCCCCCCCC)nc(NCCN2CCOCC2)n1 [Compound D2S9N8] | 22.6
55 | CCCCCCCCCNc1nc(NCCN2CCOCC2)nc(SCCCCCCCCC)n1 [Compound D2S9N9] | 38.5
56 | CCCCCCCCCCCNc1nc(NCCN2CCOCC2)nc(SCCCCCCCCC)n1 [Compound D2S9N11] | 44.8
57 | CCCCCCCCCCCCNc1nc(NCCN2CCOCC2)nc(SCCCCCCCCC)n1 [Compound D2S9N12] | 15.2
58 | CCCCCCCCCCCCCNc1nc(NCCN2CCOCC2)nc(SCCCCCCCCC)n1 [Compound D2S9N13] | 12.3
59 | CCCCCCCCCCCCCCCNc1nc(NCCN2CCOCC2)nc(SCCCCCCCCC)n1 [Compound D2S9N15] | 5.9
60 | CCCCCCCCCCCCCCCCNc1nc(NCCN2CCOCC2)nc(SCCCCCCCCC)n1 [Compound D2S9N16] | 1.4
61 | CCCCCCCCCCCCCCCCCCNc1nc(NCCN2CCOCC2)nc(SCCCCCCCCC)n1 [Compound D2S9N18] | 2.4
62 | CCCCCCCCCCSc1nc(NCCCCCC)nc(NCCN2CCOCC2)n1 [Compound D2S10N6] | 0.1
63 | CCCCCCCCCCSc1nc(NCCCCCCC)nc(NCCN2CCOCC2)n1 [Compound D2S10N7] | 0.5
64 | CCCCCCCCCCSc1nc(NCCCCCCCC)nc(NCCN2CCOCC2)n1 [Compound D2S10N8] | 0.5
65 | CCCCCCCCCCSc1nc(NCCCCCCCCC)nc(NCCN2CCOCC2)n1 [Compound D2S10N9] | 0.5
66 | CCCCCCCCCCCNc1nc(NCCN2CCOCC2)nc(SCCCCCCCCCC)n1 [Compound D2S10N11] | 0.2
67 | CCCCCCCCCCCCNc1nc(NCCN2CCOCC2)nc(SCCCCCCCCCC)n1 [Compound D2S10N12] | 1.5
68 | CCCCCCCCCCCCCNc1nc(NCCN2CCOCC2)nc(SCCCCCCCCCC)n1 [Compound D2S10N13] | 0.2
69 | CCCCCCCCCCCCCCCNc1nc(NCCN2CCOCC2)nc(SCCCCCCCCCC)n1 [Compound D2S10N15] | 1.3

Source: patent publication US20230123334A1, “AMINO LIPID COMPOUND, PREPARATION METHOD THEREFOR, AND APPLICATION THEREOF” (SHENZHEN SHENXIN BIOTECHNOLOGY CO., LTD., priority 2020, published 2023)
